Molecular target: CBL-B protein (Homo sapiens, UniProt Q13191)
Test: CBL-B binding experiment (Streptavidin-Tb cryptate / Ligand L1 displacement)
Conditions: 8 nM CBL-B protein, 25° C., 60 minutes; Ki=Relative IC50/2
Experimental: The reaction system mainly includes 1× buffer, 20 mM HEPES pH 7.5, 150 mM NaCl, 0.01% Triton X-100, 0.5 mM TCEP, and 0.1% ug/ml BSA. The compound is continuously diluted with DMSO for 10 concentration points, and 150 nL is transferred to the experimental plate. The experimental reaction begins after adding 8 nM of CBL-B protein and the reaction is carried out at 25° C. for 60 minutes. […] After an additional 60 minutes of incubation at room temperature, the experimental plate is read using an EnVision plate. The luminescence signal values were converted to percentage inhibition rates. Inhibition %=(Sample value−Maximum value)/(Minimum value−Maximum value)×100. The minimum value refers to the measured value in the wells without CBL-B protein but with DMSO and Ligand, while the maximum value refers to the measured value in the wells with DMSO, CBL-B protein, and Ligand. The IC50 values are calculated by XLFit (version 5.3.1.3) in Excel. Equation: Y=Bottom+(Top−Bottom)/(1+(IC50/X)^HillSlope); Ki=Relative IC50/2.

Chain of CBL-B protein (Q13191 whole entry): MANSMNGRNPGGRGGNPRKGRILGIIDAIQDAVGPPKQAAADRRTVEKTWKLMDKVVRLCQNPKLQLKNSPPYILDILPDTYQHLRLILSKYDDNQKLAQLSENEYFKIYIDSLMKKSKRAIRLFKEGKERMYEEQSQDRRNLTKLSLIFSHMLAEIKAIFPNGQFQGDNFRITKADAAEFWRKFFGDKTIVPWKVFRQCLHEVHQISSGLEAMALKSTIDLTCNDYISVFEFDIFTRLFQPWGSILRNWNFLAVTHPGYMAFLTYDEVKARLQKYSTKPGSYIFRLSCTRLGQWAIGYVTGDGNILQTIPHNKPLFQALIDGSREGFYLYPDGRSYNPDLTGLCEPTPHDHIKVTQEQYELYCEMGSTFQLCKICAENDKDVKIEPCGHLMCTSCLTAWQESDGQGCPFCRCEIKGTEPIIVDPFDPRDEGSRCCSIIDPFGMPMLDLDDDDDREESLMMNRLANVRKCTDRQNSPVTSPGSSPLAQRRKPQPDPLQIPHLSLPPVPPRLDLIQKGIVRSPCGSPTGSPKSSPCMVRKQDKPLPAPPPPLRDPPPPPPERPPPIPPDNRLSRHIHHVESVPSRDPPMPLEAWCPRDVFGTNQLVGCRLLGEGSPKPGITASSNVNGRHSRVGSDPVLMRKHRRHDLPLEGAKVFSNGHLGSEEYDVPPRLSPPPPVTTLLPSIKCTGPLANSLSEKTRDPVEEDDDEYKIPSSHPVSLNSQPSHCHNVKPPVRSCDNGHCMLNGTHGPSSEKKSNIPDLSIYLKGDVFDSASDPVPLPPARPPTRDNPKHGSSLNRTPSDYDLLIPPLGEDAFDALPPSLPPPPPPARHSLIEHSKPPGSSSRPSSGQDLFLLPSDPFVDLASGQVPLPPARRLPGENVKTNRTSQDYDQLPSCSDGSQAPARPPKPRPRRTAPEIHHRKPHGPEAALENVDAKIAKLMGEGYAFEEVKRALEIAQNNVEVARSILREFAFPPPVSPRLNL

Structure (SMILES)	Ki [nM]
Cn1cnnc1C1(c2cccc(-n3cc(C(F)(F)F)c4cc(CN5CCC[C@@](C)(O)C5)[nH]c4c3=O)c2)CCC1 [Compound T065, 2-[[(3R)-3-hydroxy-3-methyl-1-piperidyl]methyl]-6-[3-[1-(4-methyl-1,2,4-triazol-3-yl)cyclobutyl]phenyl]-4-(trifluoromethyl)-1H-pyrrolo[2,3-c]pyridin-7-one]	< 50
Cn1cnnc1C1(c2cccc(-n3cc(C(F)(F)F)c4cc(CN5CC[C@@H](O)[C@@H](F)C5)[nH]c4c3=O)c2)CCC1 [Compound T072, 2-(((3 S,4R)-3-fluoro-4-hydroxypiperidin-1-yl)methyl)-6-(3-(1-(4-methyl-4H-1,2,4-triazol-3-yl)cyclobutyl)phenyl)-4-(trifluoromethyl)-1,6-dihydro-7H-pyrrolo[2,3-c]pyridin-7-one]	< 50
C[C@H]1CCCN(Cc2cc3c(C(F)(F)F)cn(-c4ccc([C@]5(c6nncn6C)C[C@@H](C)C5)s4)c(=O)c3[nH]2)C1 [Compound T073, 6-(5-((1r,3S)-3-methyl-1-(4-methyl-4H-1,2,4-triazol-3-yl)cyclobutyl)thiophen-2-yl)-2-(((S)-3-methylpiperidin-1-yl)methyl)-4-(trifluoromethyl)-1,6-dihydro-7H-pyrrolo[2,3-c]pyridin-7-one]	< 50
C[C@H]1CCCN(Cc2cc3c(C(F)(F)F)cn(-c4ccc([C@]5(c6nncn6C)C[C@H](C)C5)s4)c(=O)c3[nH]2)C1 [Compound T074, 6-(5-((1s,3R)-3-methyl-1-(4-methyl-4H-1,2,4-triazol-3-yl)cyclobutyl)thiophen-2-yl)-2-(((S)-3-methylpiperidin-1-yl)methyl)-4-(trifluoromethyl)-1,6-dihydro-7H-pyrrolo[2,3-c]pyridin-7-one]	< 50
Cn1cnnc1C1(c2cccc(-n3cc(C(F)(F)F)c4cc(CN5CCC(F)(F)CC5)[nH]c4c3=O)c2)CCC1 [Compound T075, 2-[(4,4-difluoro-1-piperidyl)methyl]-6-[3-[1-(4-methyl-1,2,4-triazol-3-yl)cyclobutyl]phenyl]-4-(trifluoromethyl)-1H-pyrrolo[2,3-c]pyridin-7-one]	< 50
C[C@H]1CCCN(Cc2cc3c(C(F)(F)F)cn(-c4cccc(-c5ccccc5-c5nncn5C)c4)c(=O)c3[nH]2)C1 [Compound T076, 2-[[(3S)-3-methyl-1-piperidyl]methyl]-6-[3-[2-(4-methyl-1,2,4-triazol-3-yl)phenyl]phenyl]-4-(trifluoromethyl)-1H-pyrrolo[2,3-c]pyridin-7-one]	< 50
C[C@@H]1CN(Cc2cc3c(C4CC4)cn(-c4cccc(C5(Cc6nncn6C)COC5)c4)c(=O)c3[nH]2)CCC1(F)F [Compound T078, (R)-4-cyclopropyl-2-((4,4-difluoro-3-methylpiperidin-1-yl)methyl)-6-(3-(3-((4-methyl-4H-1,2,4-triazol-3-yl)methyl)oxetan-3-yl)phenyl)-1,6-dihydro-7H-pyrrolo[2,3-c]pyridin-7-one]	< 50
C[C@H]1CN(Cc2cc3c(C4CC4)cn(-c4cccc(C5(Cc6nncn6C)COC5)c4)c(=O)c3[nH]2)CCC1(F)F [Compound T079, (S)-4-cyclopropyl-2-((4,4-difluoro-3-methylpiperidin-1-yl)methyl)-6-(3-(3-((4-methyl-4H-1,2,4-triazol-3-yl)methyl)oxetan-3-yl)phenyl)-1,6-dihydro-7H-pyrrolo[2,3-c]pyridin-7-one]	< 50
Cn1cnnc1C1(c2cccc(-n3cc(C(F)(F)F)c4cc(CN5CCC[C@H](CC#N)C5)[nH]c4c3=O)c2)CCC1 [Compound T081, (R)-2-(1-((6-(3-(1-(4-methyl-4H-1,2,4-triazol-3-yl)cyclobutyl)phenyl)-7-oxo-4-(trifluoromethyl)-6,7-dihydro-1H-pyrrolo[2,3-c]pyridin-2-yl)methyl)piperidin-3-yl)acetonitrile]	< 50
C[C@H]1CCCN(Cc2cc3c(S(C)(=O)=O)cn(-c4cccc(C5(Cc6nncn6C)COC5)c4)c(=O)c3[nH]2)C1 [Compound T089, 2-[[(3S)-3-methyl-1-piperidyl]methyl]-4-methylsulfonyl-6-[3-[3-[(4-methyl-1,2,4-triazol-3-yl)methyl]oxetan-3-yl]phenyl]-1H-pyrrolo[2,3-c]pyridin-7-one]	< 50
C[C@H]1CCCN(Cc2cc3c(Br)cn(-c4cccc(C5(Cc6nncn6C)COC5)c4)c(=O)c3[nH]2)C1 [Compound T090, (S)-4-bromo-6-(3-(3-((4-methyl-4H-1,2,4-triazol-3-yl)methyl)oxetan-3-yl)phenyl)-2-((3-methylpiperidin-1-yl)methyl)-1,6-dihydro-7H-pyrrolo[2,3-c]pyridin-7-one]	< 50
CC(C)C1CN(C)CCN1Cc1cc2c(C3CC3)cn(-c3cccc([C@]4(c5nncn5C)C[C@@H](C)C4)c3)c(=O)c2[nH]1 (some centres unmarked) [Compound T094, 4-cyclopropyl-2-((2-isopropyl-4-methylpiperazin-1-yl)methyl)-6-(3-((1s,3s)-3-methyl-1-(4-methyl-4H-1,2,4-triazol-3-yl)cyclobutyl)phenyl)-1,6-dihydro-7H-pyrrolo[2,3-c]pyridin-7-one]	< 50
CC(C)[C@@H]1CN(C)CCN1Cc1cc2c(C3CC3)cn(-c3cccc([C@]4(c5nncn5C)C[C@@H](C)C4)c3)c(=O)c2[nH]1 [Compound T095, 4-cyclopropyl-2-(((R)-2-isopropyl-4-methylpiperazin-1-yl)methyl)-6-(3-((1s,3S)-3-methyl-1-(4-methyl-4H-1,2,4-triazol-3-yl)cyclobutyl)phenyl)-1,6-dihydro-7H-pyrrolo[2,3-c]pyridin-7-one]	< 50
CC(C)CN(Cc1cc2c(C(F)(F)F)cn(-c3cccc(C4(c5nncn5C)CCC4)c3)c(=O)c2[nH]1)CC(C)C [Compound T098, 2-[(diisobutylamino)methyl]-6-[3-[1-(4-methyl-1,2,4-triazol-3-yl)cyclobutyl]phenyl]-4-(trifluoromethyl)-1H-pyrrolo[2,3-c]pyridin-7-one]	< 50
COCC1(NCc2cc3c(C(F)(F)F)cn(-c4cccc([C@]5(c6nncn6C)C[C@H](OC)C5)c4)c(=O)c3[nH]2)CC1 [Compound T099, 6-(3-((1r,3r)-3-methoxy-1-(4-methyl-4H-1,2,4-triazol-3-yl)cyclobutyl)phenyl)-2-(((1-(methoxymethyl)cyclopropyl)amino)methyl)-4-(trifluoromethyl)-1,6-dihydro-7H-pyrrolo[2,3-c]pyridin-7-one]	< 50
COCC1(NCc2cc3c(C(F)(F)F)cn(-c4cccc([C@]5(c6nncn6C)C[C@@H](OC)C5)c4)c(=O)c3[nH]2)CC1 [Compound T100, 6-(3-((1s,3s)-3-methoxy-1-(4-methyl-4H-1,2,4-triazol-3-yl)cyclobutyl)phenyl)-2-(((1-(methoxymethyl)cyclopropyl)amino)methyl)-4-(trifluoromethyl)-1,6-dihydro-7H-pyrrolo[2,3-c]pyridin-7-one]	< 50
C[C@H]1CCCN(Cc2cc3c(C(F)(F)F)cn(-c4cc(F)cc([C@]5(c6nncn6C)C[C@@H](C)C5)c4)c(=O)c3[nH]2)C1 [Compound T101, 6-(3-fluoro-5-((1s,3R)-3-methyl-1-(4-methyl-4H-1,2,4-triazol-3-yl)cyclobutyl)phenyl)-2-(((S)-3-methylpiperidin-1-yl)methyl)-4-(trifluoromethyl)-1,6-dihydro-7H-pyrrolo[2,3-c]pyridin-7-one]	< 50

From patent US20260217706A1, “HETEROCYCLIC COMPOUNDS, PREPARATION METHOD THEREFOR AND USE THEREOF” (GUANGZHOU YUFAN NANTU BIOTECHNOLOGIES CO., LTD, priority 2023, published 2026)
